Measurements reported in patent US9737622B2, “Compounds modulators of VEGF activity and uses thereof” (ADVANCED ACCELERATOR APPLICATIONS S.A., priority 2009, dated 2017).
“Also recorded” adds a separate entry of the source. Bridge positions count the residues as written; N and C are the ends. Ends that are not written are not given here.

Legend:
HUVEC cells [1] = experiment: Caspase 3 fluorimetric assay in serum-starved HUVEC; type: cell-based, human; conditions: for effect of VEGF on caspase-3 activity (rescue) when peptide is added: in presence of VEGF, 8 hours
Description: Determination of caspase-3 activity was performed by a fluorometric assay based on the proteolytic cleavage of the AMC-derived substrate N-acetil-DEVD-AMC, which yields a fluorescent product.
HUVEC cells were plated in 6-well dishes at 1×10^5 cells/cm^2. On the next day, cells were treated, in starvation medium (EBM-2, heparin 0.1%, BSA 0.1%), with Pep #3 (25-100 ng/ml) or scrambled Pep RND (100 ng/ml) peptides for 8 h at 37° C. VEGF165 (R & D Systems, Minneapolis, Minn., USA), 25 ng/ml, was used as positive control.
After 8 h the cells were processed with 150 μl of Caspase-3 reaction buffer (HEPES pH 7.5 50 mM, EDTA 0.1 mM, NP-40 0.1%, CHAPS 0.1%, DTT 1 mM) and cell proteins collected after centrifugation at 13000 rpm for 15 min at 4° C. Protein concentrations were determined by Bradford method (Bio-Rad, Hercules, Calif.) and 20 μg of lysates were incubated in 96-well plates with 20 μM N-acetil-DEVD-AMC at 37° C. for 3 h.
Samples were analyzed using a microplate reader (L55 Luminescence Spectometrer Perkin Elmer Instruments) (excitation: 360 nm, emission: 440 nm).
To investigate the biological activity of the designed peptides the authors analyzed the activation of caspase 3 in human primary endothelial (HUVEC) cells serum-deprived by means of a caspase-3 fluorimetric assay. It is well known that VEGF act as survival factor for ECs. […] Experiments were performed on serum starved HUVEC treated with designed peptides in presence or absence of VEGF in order to highlight an antagonist or agonist (VEGF-like) activity respectively. The biological activity of the analyzed compounds is reported as percentage of VEGF rescue (FIG. 1). The decrease of the caspase-3 activity following VEGF incubation is set to 100% rescue.

VEGF receptors = experiment: Biological and in vivo assays, summary of angiogenic activity; conditions: summary statement
Excerpt: The compounds have application in diagnosis and treatment of pathologies depending on angiogenesis, especially they can be used in therapy of […].

ERK1/2 = experiment: Western blot of phospho ERK1/2 in HUVEC; type: cell-based, human
Description: Cells were plated in 12-well dishes at 1×10^5 cells/cm^2. On the next day, cells were treated, in starvation medium (EBM-2, heparin 0.1%, BSA 0.1%) with Pep #3 (25-100 ng/ml) or Pep RND (100 ng/ml) peptides for 15 min and 30 min at 37° C. VEGF165 (R & D Systems, Minneapolis, Minn., USA) 25 ng/ml was used as positive control. After treatment, whole cell lysates were obtained by using RIPA lysis buffer (Tris 50 mM pH 7.5, NaCl 150 mM, NP-40 1%, EGTA 1 mM, SDS 0.05%) supplemented with Complete Protease Inhibitors and Phosphate Inhibitors (Pierce Biotechnology, Rockford, Ill.). Cell proteins were then collected after centrifugation and protein content was determined by Bradford method (Bio-Rad, Hercules, Calif.). Proteins were separated by electrophoresis on SDS-polyacrylamide gels and transferred to nitrocellulose membrane (Millipore Corp., Bedford, Mass.) by semi-dry electroblotting (Transblot; Bio-Rad Laboratories, Hercules, Calif.).
The serine-tyrosine-phosphorilated ERK1/2 (polyclonal antibody, Cell Signaling Technology, Inc. Danvers, Mass., USA) and aGAPDH (monoclonal antibody 6C5, Santa Cruz Biotechnology, Inc., Santa Cruz, Calif.) were visualized by specific antibodies, anti-rabbit and anti-mouse horseradish peroxidase-conjugated secondary antibody (Jackson Immunoresearch Laboratories, Inc, Baltimor Pike; Pa., USA) standard chemiluminescence (Pierce Biotechnology, Rockford, Ill.).
VEGF-modulated angiogenesis is largely ERK1/2-dependent, leading to DNA synthesis and cell proliferation. […] The authors therefore investigated whether peptide #3 could also induce ERK and AKT activation like VEGF. […] Scrambled Pep-RND had no effect on ERK1/2 and AKT activation, proving that it is unable to activate intracellular signaling (FIG. 2A).

AKT = experiment: Western blot of phospho AKT in HUVEC; type: cell-based, human; conditions: serum deprivation, 15 and 30 min, peptide #3 25-100 ng/ml, Pep-RND 100 ng/ml
Description: Cells were plated in 12-well dishes at 1×10^5 cells/cm^2. On the next day, cells were treated, in starvation medium (EBM-2, heparin 0.1%, BSA 0.1%) with Pep #3 (25-100 ng/ml) or Pep RND (100 ng/ml) peptides for 15 min and 30 min at 37° C. VEGF165 (R & D Systems, Minneapolis, Minn., USA) 25 ng/ml was used as positive control. After treatment, whole cell lysates were obtained by using RIPA lysis buffer (Tris 50 mM pH 7.5, NaCl 150 mM, NP-40 1%, EGTA 1 mM, SDS 0.05%) supplemented with Complete Protease Inhibitors and Phosphate Inhibitors (Pierce Biotechnology, Rockford, Ill.). Cell proteins were then collected after centrifugation and protein content was determined by Bradford method (Bio-Rad, Hercules, Calif.). Proteins were separated by electrophoresis on SDS-polyacrylamide gels and transferred to nitrocellulose membrane (Millipore Corp., Bedford, Mass.) by semi-dry electroblotting (Transblot; Bio-Rad Laboratories, Hercules, Calif.). […]

blood vessel development = experiment: Directed In Vivo Angiogenesis Angioreactor (DIVAA); design: species or system CD1 mice; conditions: mice, 21 days
Description: Female CD1 mice (20-25 g) were supplied by Charles-River (Italy) and kept in temperature- and humidity-controlled rooms (22° C., 50%) with lights on from 07:00 to 19:00 h, water and food available ad libitum. All procedures were carried out in accordance with the Italian law (Legislative Decree no. 116, 27 Jan. 1992), which acknowledges the European Directive 86/609/EEC, and were fully compliant with GlaxoSmithKline policy on the care and use of laboratory animal and codes of practice. Furthermore, all efforts were made to minimize the number of animals used and their suffering.
Sterile silicone cylinders closed at one end, called angioreactors (Cultrex, Trevigen, Inc. Helgerman Conn., Gaithersburg), were filled with 20 μL of basement membrane extract (BME) premixed with or without angiogenesis factors (VEGF, FGF) to obtain positive and negative controls respectively. […]
Vessel formation evaluation was performed after 21 days. […] Subsequently, cells were incubated with FITC-Lectin reagent (available in the kit) and then observed by fluorescence microscope (ZEISS, German).
Pro-angiogenic peptide #3 activity was also assayed in an in vivo test using DIVAA (Directed in Vivo Angiogenesis Angioreactor). DIVAA test is performed by implanting angioreactors into the dorsal flank of mice; this allows a quantitative assessment of blood vessel development. […]

RB protein = experiment: Western blot of RB phosphorylation in HUVEC; type: cell-based, human; conditions: 24 hours, Pep #3 10-100 ng/ml, VEGF165 25 ng/ml, Pep RND 100 ng/ml
Description: FIG. 3—A) HUVEC cells were incubated in starvation medium (EBM-2, 0.1% heparin, 0.1% BSA) alone or in presence of VEGF165 (25 ng/ml) or with indicated concentrations of Pep #3 or Pep RND (100 ng/ml), for 24, 48 and 72 hours at 37° C. in 5% CO2 atmosphere. Cells were then incubated with CyQUANT® NF reagent for 1 hour at 37° C. and fluorescence intensities of quadruplicate samples were measured with a fluorescence microplate reader using excitation at 485 nm and fluorescence detection at 530 nm. In graph values are calculated as % of proliferating cells compared to controls (untreated cells) at 24, 48 and 72 hours. B) ERK1/2 phosphorylation and phospho-RB was evaluated at 24 hr after stimulation with Pep #3 (10-25-50 and 100 ng/ml), VEGF165 (25 ng/ml) and Pep RND (100 ng/ml). Anti-ERK1/2 and anti-GAPDH antibodies were used as loading control
As a marker of cell proliferation, the RB phosphorylation status was also checked in the same experimental conditions. RB protein, in fact, is able to regulate proliferation by controlling cell cycle progression through the restriction point within the G1 and S phases.

HUVEC cells [2] = experiment: Cell proliferation assay (CyQUANT NF); type: cell-based, human
Description: HUVEC cells were plated at density of 1200 cells/well in 96-well poly-D-lysine-coated microplates (Becton Dickinson, Franklin Lakes, N.J. USA). After 24 hours incubation in starvation medium (EBM-2, heparin 0.1%, BSA 0.1%), cells were treated with VEGF165 25 ng/ml (R & D Systems, Minneapolis, Minn., USA), with Pep #3 (10-25-50-100 ng/ml) or Pep RND (100 ng/ml). Cell proliferation was determined by using CyQUANT® NF Cell Proliferation Assay Kit (Molecular Probes, Invitrogen S.R.L., Milano, Italy) at 24, 48 and 72 hour after treatment. CyQUANT® NF assay is based on cellular DNA content measurement via fluorescent dye binding. Because cellular DNA content is highly regulated, it is closely proportional to cell number. Briefly, medium was removed and cells incubated with CyQUANT NF reagent for 1 hour at 37° C. according to the manufacturer's instructions. Plates were then analyzed by using a microplate reader (L55 Luminescence Spectometrer Perkin Elmer Instruments) (excitation: 485 nm, emission: 520 nm).
To evaluate whether peptide #3 induces cellular proliferation, a cell proliferation assay was performed on HUVEC cells treated, in serum deprivation conditions, with pep #3 (10-25-50-100 ng/ml) or Pep RND (100 ng/ml). After 24, 48 and 72 hours of treatment cell proliferation was measured by CyQUANT® NF Cell Proliferation Assay Kit. […] This effect is evident at 24, 48 and 72 hours. […]

Sequence: KQCLWIRSGDRPWYCTS (disulfide 3-15 (inferred)) [Peptide #4]
- effect of VEGF on caspase-3 activity (rescue) when peptide is added (HUVEC cells [1]): partially abolished
- angiogenic biological activity (pro- or anti-) (VEGF receptors): antiangiogenic activity
- ERK 1/2 activation of VEGF stimulated HUVE cells (ERK1/2; 100 ng/mL, 30 min, VEGF 25 ng/ml): dramatically reduces
- biological effect (ERK1/2 activation) on untreated HUVE cells (ERK1/2; 100 ng/mL, 30 min, no VEGF): does not show any biological effect

Sequence: KQCMWIKPHQGQWTCTS (disulfide 3-15 (inferred)) [compound 2]
- effect of VEGF on caspase-3 activity (rescue) when peptide is added (HUVEC cells [1]): partially abolished
- angiogenic biological activity (pro- or anti-) (VEGF receptors): antiangiogenic activity

Sequence: KQLLWIRSGDRPWYYTS (prepared by chemical synthesis) [Peptide #3]
- AKT activation (phospho AKT) (AKT): displayed ERK1/2 and AKT activation
- caspase-3 activity (rescue from apoptosis) (HUVEC cells [1]; 8 hour, without added VEGF, peptide #3 25 ng/ml and 100 ng/ml, vs untreated and Pep-RND-treated cells): significantly decreased
- angiogenic biological activity (pro- or anti-) (VEGF receptors): proangiogenic biological activity
- induction of new vessel formation with respect to negative controls (blood vessel development; 100 ng/ml, FITC-lectin positive cells): 3.8 fold
- blood vessels development / new vessel formation in angioreactors (blood vessel development; subcutaneous angioreactors, peptide #3 100 ng/ml): Blood vessels development was observed; also recorded: new vessel formation was observed
- RB phosphorylation (RB protein): enhanced RB phosphorylation
- ERK1/2 activation after 24 hours of treatment (ERK1/2; HUVEC, 24 hours, Pep #3 10-100 ng/ml, VEGF165 25 ng/ml): confirmed ERK1/2 activation
- ERK1/2 activation (phospho ERK1/2) (ERK1/2; HUVEC, serum deprivation, 15 and 30 min, peptide #3 25-100 ng/ml, Pep-RND 100 ng/ml): displayed ERK1/2 and AKT activation
- cell proliferation at 25 and 50 ng/ml (HUVEC cells [2]; 25 and 50 ng/ml, 48 and 72 hours): Considerable effects
- cell proliferation (HUVEC cells [2]; serum deprivation, 24, 48 and 72 hours, pep #3 10-25-50-100 ng/ml, Pep RND 100 ng/ml): able to induce, in a dose dependent manner, cell proliferation

Sequence: KQIMWIKPHQGQWIYTS (prepared by chemical synthesis) [compound 1]
- angiogenic biological activity (pro- or anti-) (VEGF receptors): antiangiogenic activity
